What is called IC50 is the concentration that gives 50% inhibition. A lower IC50 goes with inhibition by little substance.

These results are taken from patent US8198447B2, “Fused tricyclic compound having aldose reductase inhibitory activity” (National University Corporation University of Toyama, priority 2007, dated 2012).

The subject of one data set is mice. The data set is described as follows: Acute toxicity test. As to conditions: 500 mg/kg body weight, three mice. In kind it is in vivo. The method, then: Compound 28 was orally administered to three mice at a dose of 500 mg/kg body weight, the maximum amount considered to be prescribed for the mouse in one dose.
In another data set the target is Aldose reductase II (Homo sapiens, UniProt P15121). The data set is described as follows: Aldose reductase inhibitory activity (NADPH decrease at 340 nm, DL-glyceraldehyde substrate). The format is biochemical. As to conditions: pH 6.2, 100 mM DL-glyceraldehyde, 1.5 mM NADPH. The method, then:
A reaction solution containing a 200 mM of a phosphate buffer solution (pH 6.2), 1.5 mM of reduced nicotinamide adenine dinucleotide phosphate (NADPH), 1 mg/ml of bovine serum albumin, a test compound, and 100 mM of DL-glyceraldehyde as a substrate was prepared. Aldose reductase II (5.1×10^−1 unit/ml) was added to the solution to initiate the reaction, and the amount of NADPH reduced by the reaction was measured at an absorption wavelength of 340 nm using a spectrophotometer.

The subject of data set [1] is mouse leukemia adriamycin sensitive strain P388/S. The data set is described as follows: Cancer cell sensitivity test (MTT). In kind it is cell-based. As to conditions: Mus musculus; P388/S cells, test compound 25 μM, 44 hours, MTT-formazan at 540 nm; read-out: INHIBITORY RATE (%). The method, then: Cells of mouse leukemia adriamycin sensitive strain P388/S were cultured in an RPMI1640 culture medium (5% fetal bovine serum, […] 2-mercaptoethanol, 30 μM kanamycin) under conditions of 37° C. and 5% CO2, and used for a compound sensitivity test.
The cell suspension (1.35×10^4 cells/ml) was added to a 96 well plate, 100 μl per well.
After culturing under the conditions of 37° C. and 5% CO2 for 16 hours, a solution of the test compound dissolved in DMSO to a concentration of 25 μM was added, followed by continuation of culture for a further 44 hours, while only DMSO was added to a control to continue the culture.
After culturing, […] (PBS, pH 7.4), was added in an amount of 25 μl/well, followed by incubation for four hours to produce MTT-formazan.
After removing supernatant by aspiration, 200 μl of DMSO was added and the absorbance of MTT-formazan at 540 nm was measured.

For `O=C(O)Cn1c2c(c3c(F)cc(F)cc31)CCN(Cc1ccccc1)C2=S` [Compound 28, (2-Benzyl-5,7-difluoro-1-thioxo-1,2,3,4-tetrahydro-β-carbolin-9-yl)acetic acid], the “Survival after single oral dose” value with mice is reported as “all of the three mice survived”. Further, the “Abnormalities in internal organs, action, etc.” value with mice (oral) was “no abnormalities being observed”. It took 2.5 µM to reach half-maximal inhibition at Aldose reductase II (IC50).
For `O=C(O)Cn1c2c(c3cc(Cl)ccc31)CCOC2=O` [Compound 30, (6-Chloro-1-oxo-3,4-dihydro-1H-pyrano[3,4-b]indol-9-yl)acetic acid], the inhibition at 25 µM in data set [1] was 31.1%. The molecule further had an IC50 on Aldose reductase II of 12.4 µM.
For the molecule `O=C(O)Cn1c2c(c3ccccc31)CCN(Cc1ccccc1)C2=S` [Compound 26, (2-Benzyl-1-thioxo-1,2,3,4-tetrahydro-β-carbolin-9-yl)acetic acid], the inhibition at 25 µM in data set [1] was determined as 88.1%. At Aldose reductase II, this molecule returned an IC50 of 4.2 µM.
